From patent US5900406A, “Use of antibiotics of the type 2-deoxystreptamine substituted with aminosugars to inhibit growth of microorganisms containing group I introns” (NZYM, Inc., priority 1991, dated 1999)

How the values were obtained:
[1] = test system: td intron (group I intron of the thymidylate synthase gene of phage T4, truncated version); type: biochemical
Experimental: In vitro-transcribed and gel-purified^8 preRNA from a truncated version of the td intron^21 was incubated in a splicing buffer (50 mM Tris-HCl, pH 7.5, 5 mM MgCl2, 0.4 mM spermidine) for 10 min at 37° C. with GTP and gentamicin as indicated. Samples were separated on 5% acrylamide/7 M urea gels. RNA species are as follows: In-E2, intron-exon 2; L-ln, linear intron; E1-E2, ligated exons; E1, exon 1.
FIGS. 3a-c, Splicing experiments were done with the td intron as described in FIG. 2a, using several members of each family of aminoglycoside antibiotics (gentamicin, kanamycin and neomycin). Structures of the antibiotics can be found in Davies and Yagisaura in Biochemistry and Genetic Function Of Commercially Important Antibiotics, p. 329-354, Addison-Wesley, London, (1983) "Conc" is the antibiotic concentration at which about 50% inhibition was observed.
To monitor the splice process in vitro precursor RNA containing exon1, intron and exon2 was synthesized by in vitro transcription using bacteriophage RNA polymerase. During transcription, a radioactive labeled nucleotide was present in the nucleotide mixture and was incorporated in the RNA. This radioactive labeled RNA was then subjected to splicing conditions and after reaction the RNA splice products were separated from each other by electrophoresis on a denaturing acrylamide gel. The gel was dried and exposed for autoradiography.
Unspliced precursor RNA from the thymidylate synthase gene of the phage T4, which had been transcribed in vitro, and purified as previously described, (Schroeder, R., von Ahsen, U. & Belfort, M. Biochemistry 30, 3295-3303 (1991)) was incubated with increasing amounts of gentamicin under normal splicing conditions.
(§1) Materials and Methods: In vitro splicing experiments were performed with a truncated version of the td gene, containing 79 nt of exon I, 265 nt of intron sequences containing only the catalytic core (delta P6-2) and 21 nt of exon H (Schroeder, von Ahsen, & Belfort, 199 1, Biochemistry 30, 3295). The plasmids containing the Tetrahymena rRNA intron and the yeast mitochondrial cob intron I (the group II intron) were pBGST7 (Been & Cech, 1986, Cell 47, 207) and pBSbIl (Schmelzer and Schweyen, 1986, Cell 46, 557), respectively. The sunY intron is described in Michel et al. (1990, Genes & Development 4, 777). DNA was prepared by the alkaline-lysis procedure and linearized with appropriate restriction enzymes. Transcription was performed in a total volume of 20 μl at 30° C. for one (1) hour in buffer containing 40 mM Tris-HCl pH 7.5, 3 mM MgCl2, 0.4 mM spermidine, 1 mM of each NTP, 5 mM […], 10 units T7 RNA polymerase (Boehringer Mannheim), 10 μCi alpha-^35 S-CTP and 10 units RNAse inhibitor (Boehringer Mannheim). The reaction mixture was loaded on a 5% polyacrylamide/7 M urea gel. Precursor RNA was cut out of the gel and soaked in 400 μl elution buffer (10 mM Tris-HCl pH 7.5, 10 mM EDTA, 3.5 M NH4 OAc, 0.1% SDS) for two hours. After ethanol precipitation, the RNA was dissolved in H2 O-- before splicing experiments were performed the RNA was incubated in splicing buffer (40 mM Tris-HCl pH 7.5, 8 mM MgCl2, 0.4 mM spermidine) for 2 min at 56° C. For splicing of the suny intron and the Tetrahymena intron 50 mM NH4 Cl or 200 mM NaCl were added, respectively. Splicing was initiated by addition of guanosine at the appropriate concentration at 37° C. When splicing was to be inhibited by antibiotic, the antibiotic was added immediately before the guanosine. Splicing reactions were performed at 37° C. for 10'.

[2] = test system: sunY intron (shortened version, construct SYC1.3); test: In vitro splicing inhibition of the sunY group I intron (GTP incorporation assay); type: biochemical, T4-phage
Experimental: as §1, with “DNA” for “Materials and Methods: In vitro splicing experiments were performed with a truncated version of the td gene, containing 79 nt of exon I, 265 nt of intron sequences containing only the catalytic core (delta P6-2) and 21 nt of exon H (Schroeder, von Ahsen, & Belfort, 199 1, Biochemistry 30, 3295). The plasmids containing the Tetrahymena rRNA intron and the yeast mitochondrial cob intron I (the group II intron) were pBGST7 (Been & Cech, 1986, Cell 47, 207) and pBSbIl (Schmelzer and Schweyen, 1986, Cell 46, 557), respectively. The sunY intron is described in Michel et al. (1990, Genes & Development 4, 777). DNA”, “10'. […] Samples were separated on 5% acrylamide/7 M urea gels.” for “10'.”

[3] = test system: group I intron from the ribosomal RNA from Tetrahymena thermophila; test: In vitro splicing inhibition of the Tetrahymena rRNA group I intron; type: biochemical; conditions: read-out: concentration giving 50% inhibition of splicing
Experimental: To see whether this inhibition could be extended to all group I introns, the group I intron from the ribosomal RNA from Tetrahymena thermophila was tested for sensitivity towards gentamicin and again the splice reaction was inhibited. To test the specificity of this interaction of gentamicin with this type of catalytic RNA […]
(§2) Materials and Methods: In vitro splicing experiments were performed with a truncated version of the td gene, containing 79 nt of exon I, 265 nt of intron sequences containing only the catalytic core (delta P6-2) and 21 nt of exon H (Schroeder, von Ahsen, & Belfort, 199 1, Biochemistry 30, 3295). The plasmids containing the Tetrahymena rRNA intron and the yeast mitochondrial cob intron I (the group II intron) were pBGST7 (Been & Cech, 1986, Cell 47, 207) and pBSbIl (Schmelzer and Schweyen, 1986, Cell 46, 557), respectively. The sunY intron is described in Michel et al. (1990, Genes & Development 4, 777). DNA was prepared by the alkaline-lysis procedure and linearized with appropriate restriction enzymes. […]

[4] = test system: group II bI1 intron (first intron of the yeast mitochondrial apocytochrome b gene); test: In vitro splicing of a group II intron in the presence of aminoglycosides; type: biochemical; conditions: concentrations ≤5 mM
Experimental: FIG. 2c, Precursor -A of the group II bli intron (first intron of the yeast mitochondrial apocytochrome b gene) was incubated in a splicing buffer (40 mM Tris-HCl, pH 7.5, 60 mM MgCl2, 625 mM (NH4)2 SO4, 2 mM spermidine) at 42° C. for 60 min with increasing amounts of gentamicin as indicated. Splicing products were separated as in FIG. 2 A. C is an unincubated control.
as §2, with “enzymes. Transcription was performed in a total volume of 20 μl at 30° C. for one (1) hour in buffer containing 40 mM Tris-HCl pH 7.5, 3 mM MgCl2, 0.4 mM spermidine, 1 mM of each NTP, 5 mM […], 10 units T7 RNA polymerase (Boehringer Mannheim), 10 μCi alpha-^35 S-CTP and 10 units RNAse inhibitor (Boehringer Mannheim).” for “enzymes.”

[5] = test system: td intron (group I intron of the thymidylate synthase gene of phage T4, truncated version); conditions: td intron self-splicing; read-out: Michaelis constant (Km) for GTP; cited from earlier work

Molecule	concentration at which the second step (cleavage at the 3' splice-site and exon ligation) is completely inhibited ([1]; GTP 2.5 μM or 100 μM) [µM]	effect on the first step of splicing ([1]; concentrations ≤2 mM, whatever the guanosine concentration)	concentration to which the sunY intron is sensitive [2] [µM]	IC50 [3] [µM]	inhibition of splicing of the group II intron [4]	lowest concentration with splicing inhibition activity ([1]; activity at a concentration as low as) [µM]	antibiotic concentration affecting the first step of splicing ([1]; first step affected only at this concentration) [µM]	IC50 ([1]; in vitro splicing, 37° C., 10 min, read-out: concentration giving approximately 50% inhibition of the second splice step of the td intron) [µM]	Km [5] [µM]
gentamicin	2.5	little effect	100	~100	not inhibited				
NC[C@H]1O[C@H](O[C@H]2[C@H](O)[C@@H](O[C@H]3O[C@H](CO)[C@@H](O)[C@H](N)[C@H]3O)[C@H](N)C[C@@H]2N)[C@H](N)C[C@@H]1O [Tobramycin]					not inhibited	0.5	100	~0.5	
Nc1nc2c(ncn2[C@@H]2O[C@H](COP(=O)(O)OP(=O)(O)OP(=O)(O)O)[C@@H](O)[C@H]2O)c(=O)[nH]1 [GTP]									1
